Values quoted from earlier work in US9937154B2, “Use of telmisartan to prevent and treat graft versus host disease and other alloimmune and autoimmune diseases” (Hackensack University Medical Center, priority 2015, dated 2018).
Where two headings read alike, the source gives them in different places.

Assays:
[1] = tested on: patients treated with MICARDIS; settings: cited from earlier work
[2] = target: CYP2C19 (Homo sapiens, UniProt P33261); settings: in vitro; cited from earlier work
[3] = tested on: rat colitis; settings: chemically induced acute colitis, cited from earlier work
[4] = tested on: corneal neovascularization; settings: corneal systems; cited from earlier work
[5] = cited from earlier work
[6] = tested on: ROCK; settings: cited from earlier work
[7] = cited from earlier work; remark: listed apart in the source
[8] = tested on: plasma proteins, mainly albumin and orosomucoid; settings: cited from earlier work
[9] = tested on: cytochrome P450 enzymes; settings: cited from earlier work
[10] = tested on: lymphocyte chemotaxis; settings: in part SDF-1 induced chemotaxis; cited from earlier work
[11] = tested on: Tregs:autoreactive Th17 cells; settings: cited from earlier work
[12] = 80 or 160 mg per day; cited from earlier work
[13] = tested on: patients with mild to moderate hypertension; settings: cited from earlier work

Chain of CYP2C19 (P33261 whole entry): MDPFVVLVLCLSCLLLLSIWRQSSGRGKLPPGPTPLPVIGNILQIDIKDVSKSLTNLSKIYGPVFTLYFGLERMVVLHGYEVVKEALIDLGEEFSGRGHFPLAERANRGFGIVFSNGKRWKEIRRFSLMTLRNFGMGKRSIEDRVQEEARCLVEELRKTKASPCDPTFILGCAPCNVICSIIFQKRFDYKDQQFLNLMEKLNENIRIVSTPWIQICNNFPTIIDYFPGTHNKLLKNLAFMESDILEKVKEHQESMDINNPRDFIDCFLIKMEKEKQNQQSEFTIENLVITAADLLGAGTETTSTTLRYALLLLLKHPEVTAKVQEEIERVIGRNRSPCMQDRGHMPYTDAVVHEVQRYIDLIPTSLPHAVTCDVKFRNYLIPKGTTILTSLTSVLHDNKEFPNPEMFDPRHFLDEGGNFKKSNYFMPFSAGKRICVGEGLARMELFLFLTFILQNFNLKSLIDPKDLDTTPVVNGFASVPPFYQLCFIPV

For CCCc1nc2c(C)cc(-c3nc4ccccc4n3C)cc2n1Cc1ccc(-c2ccccc2C(=O)O)cc1 [Telmisartan, telmisartan], the incidence of cough ([1]; 6 placebo-controlled trials, identical to placebo) is given as 1.6%, the “incidence of back pain” value ([1]; n = 1455) is given as 3% and the incidence of diarrhea ([1]; n = 1455) is given as 3%. For the same compound, the incidence of pharyngitis ([1]; n = 1455) was 1%, the incidence of sinusitis ([1]; n = 1455) was 3% and the “incidence of upper respiratory tract infection” value ([1]; n = 1455) was 7%. For the same compound, the “discontinuation of therapy because of adverse events” value ([1]; of 1455 patients, placebo-controlled clinical trials) was 2.8%, the “inhibition of CYP2C19” value [2] was “some inhibition” and the effect on colitis ([3]; listed as telmisartan) was “anti-inflammatory effects”. The effect on colitis [3] was “protective effect against rat colitis”, the neovascularization [4] was “prevent neovascularization” and the “reduction in AUC by food” value ([5]; 40 mg tablet) was “about 6%”. For the same compound, the “reduction in AUC by food” value ([5]; 160 mg dose) was “about 20%”, the terminal elimination half-life ([5]; in vivo) was “approximately 24 hours” and the volume of distribution ([5]; in vivo) was “approximately 500 liters”. For the same compound, the “potency as ROCK inhibitor compared with Y-27632” value [6] was “as potent an inhibitor of ROCK as Y-27632”, the “amount found in urine” value ([7]; intravenous administration) was 0.91 % of total radioactivity and the “administered dose eliminated unchanged in feces via biliary excretion” value ([7]; intravenous or oral 14C-labeled telmisartan) was greater than 97%. For the same compound, the “amount found in urine” value ([7]; oral administration) was 0.49 % of total radioactivity, the “bound to plasma proteins” value [8] was greater than 99.5% and the “metabolism by the cytochrome P450 system” value [9] was “not metabolized”. The “effects in vitro on cytochrome P450 enzymes” value ([9]; except CYP2C19) was “no effects”, the lymphocyte chemotaxis [10] was “abrogate lymphocyte chemotaxis” and the “ratio of protective Tregs:autoreactive Th17 cells” value [11] was “increase the ratio”. The “incidence of reported poor tolerability” value [12] was 0.5%, the “DBP reduction from baseline after placebo subtraction” value (from here on “DBP reduction from baseline”) ([13]; 20 mg once daily) was roughly 6 mm Hg and the “SBP reduction from baseline after placebo subtraction” value (“SBP reduction from baseline” below) ([13]; 20 mg once daily) was 6-8 mm Hg. For the same compound, the “DBP reduction from baseline” value ([13]; 40 mg once daily) was 6-8 mm Hg, the “SBP reduction from baseline” value ([13]; 40 mg once daily) was 9-13 mm Hg and the “DBP reduction from baseline” value ([13]; 80 mg once daily) was 7-8 mm Hg. The “SBP reduction from baseline” value ([13]; 80 mg once daily) was 12-13 mm Hg, the “time to maximal blood pressure reduction” value ([13]; after initiation of treatment) was roughly 4 weeks and the “incidence of symptomatic orthostasis” value ([13]; after the first dose, all controlled trials) was 0.04%.
